Assays:
MCF7 = experiment: Cytotoxicity against human MCF7 cells after 48 hrs by MTT assay; format: functional, cell-based; details: MCF7, 48 h
PC-3 [1] = experiment: Cytotoxicity against human PC3 cells after 48 hrs by MTT assay; format: functional, cell-based; details: PC-3, 48 h
A549 [2] = experiment: Cytotoxicity against human A549 cells after 48 hrs by MTT assay; format: functional, cell-based; details: A549, 48 h
HepG2 [3] = experiment: Cytotoxicity against human HepG2 cells after 48 hrs by MTT assay; format: functional, cell-based; details: HepG2, 48 h
PC-3 [4] = experiment: Potency index, ratio of IC50 for fluorouracil to IC50 for test compound for human PC3 cells; format: functional
HepG2 [5] = experiment: Potency index, ratio of IC50 for fluorouracil to IC50 for test compound for human HepG2 cells; format: functional
PC-3 [6] = experiment: Cell cycle arrest in human PC3 cells assessed as accumulation at G2/M phase at 4 uM after 48 hrs by flow cytometry (Rvb=16.72%); format: functional
PC-3 [7] = experiment: Cell cycle arrest in human PC3 cells assessed as accumulation at G0/G1 phase at 4 uM after 48 hrs by flow cytometry (Rvb=60.55%); format: functional
PC-3 [8] = experiment: Cell cycle arrest in human PC3 cells assessed as accumulation at G2/M phase at 8 uM after 48 hrs by flow cytometry (Rvb=16.72%); format: functional
PC-3 [9] = experiment: Cell cycle arrest in human PC3 cells assessed as accumulation at G0/G1 phase at 8 uM after 48 hrs by flow cytometry (Rvb=60.55%); format: functional
PC-3 [10] = experiment: Cell cycle arrest in human PC3 cells assessed as accumulation at G0/G1 phase at 2 uM after 48 hrs by flow cytometry (Rvb=60.55%); format: functional
PC-3 [11] = experiment: Cell cycle arrest in human PC3 cells assessed as accumulation at S phase at 2 uM after 48 hrs by flow cytometry (Rvb=21.10%); format: functional
PC-3 [12] = experiment: Cell cycle arrest in human PC3 cells assessed as accumulation at Sub-G1 phase at 8 uM after 48 hrs by flow cytometry (Rvb=0.37%); format: functional
PC-3 [13] = experiment: Cell cycle arrest in human PC3 cells assessed as accumulation at Sub-G1 phase at 4 uM after 48 hrs by flow cytometry (Rvb=0.37%); format: functional
PC-3 [14] = experiment: Cell cycle arrest in human PC3 cells assessed as accumulation at S phase at 8 uM after 48 hrs by flow cytometry (Rvb=21.10%); format: functional
PC-3 [15] = experiment: Cell cycle arrest in human PC3 cells assessed as accumulation at G2/M phase at 2 uM after 48 hrs by flow cytometry (Rvb=16.72%); format: functional
A549 [16] = experiment: Potency index, ratio of IC50 for fluorouracil to IC50 for test compound for human A549 cells; format: functional
PC-3 [17] = experiment: Cell cycle arrest in human PC3 cells assessed as accumulation at S phase at 4 uM after 48 hrs by flow cytometry (Rvb=21.10%); format: functional
PC-3 [18] = experiment: Cell cycle arrest in human PC3 cells assessed as accumulation at G2/M phase after 48 hrs by flow cytometry; format: functional, cell-based
PC-3 [19] = experiment: Cell cycle arrest in human PC3 cells assessed as accumulation at Sub-G1 phase at 2 uM after 48 hrs by flow cytometry (Rvb=0.37%); format: functional

SMILES	IC50 (MCF7) [µM]	IC50 (PC-3 [1]) [µM]	IC50 (A549 [2]) [µM]	IC50 (HepG2 [3]) [µM]	other results
COc1cccc(C(=O)C2Sc3nnc(-c4cc(OC)c(OC)c(OC)c4)n3NC2c2ccco2)c1 (centres undefined)	> 100	84.6	> 100	> 100	–
COc1cc(-c2nnc3n2NC(c2ccco2)C(C(=O)c2ccc(-c4ccccc4)cc2)S3)cc(OC)c1OC (centres undefined)	> 100	45.9	> 100	> 100	–
COc1cc(-c2nnc3n2NC(c2ccco2)C(C(=O)c2ccc(O)cc2)S3)cc(OC)c1OC (centres undefined)	88.9	38.3	93.4	> 100	–
COc1cc(-c2nnc3n2NC(c2ccco2)C(C(=O)c2ccc([N+](=O)[O-])cc2)S3)cc(OC)c1OC (centres undefined)	> 100	27.9	> 100	87.8	Ratio IC50 (PC-3 [4]): 0.62
COc1cc(-c2nnc3n2NC(c2ccco2)C(C(=O)c2ccc(F)c(F)c2)S3)cc(OC)c1OC (centres undefined)	73.2	36	93.7	52.4	Ratio IC50 (PC-3 [4]): 0.62
COc1cc(-c2nnc3n2NC(c2cccs2)C(C(=O)c2ccccc2)S3)cc(OC)c1OC (centres undefined)	> 100	86.3	69.4	> 100	–
COc1ccc(C(=O)C2Sc3nnc(-c4cc(OC)c(OC)c(OC)c4)n3NC2c2ccco2)cc1 (centres undefined)	> 100	> 100	> 100	> 100	–
COc1cc(-c2nnc3n2NC(c2ccco2)C(C(=O)c2ccco2)S3)cc(OC)c1OC (centres undefined)	> 100	58.3	68.7	> 100	–
COc1cc(-c2nnc3n2NC(c2cccs2)C(C(=O)c2ccc(Cl)cc2)S3)cc(OC)c1OC (centres undefined)	42.8	32.5	20.1	13.2	–
COc1cc(-c2nnc3n2NC(c2cccs2)C(C(=O)c2ccc(F)cc2)S3)cc(OC)c1OC (centres undefined)	43.6	27.4	45	54.2	–
COc1cc(-c2nnc3n2NC(c2ccco2)C(C(=O)c2ccccc2)S3)cc(OC)c1OC (centres undefined)	39.8	64.3	33.4	90.9	–
COc1cc(-c2nnc3n2NC(c2ccco2)C(C(=O)c2ccc(Br)cc2)S3)cc(OC)c1OC (centres undefined)	> 100	36.4	42.1	> 100	Ratio IC50 (PC-3 [4]): 0.62
COc1cc(-c2nnc3n2NC(c2ccco2)C(C(=O)C2CC2)S3)cc(OC)c1OC (centres undefined)	> 100	95.2	> 100	> 100	–
COc1cc(-c2nnc3n2NC(c2ccco2)C(C(=O)c2cccc4ccccc24)S3)cc(OC)c1OC (centres undefined)	> 100	> 100	> 100	33.9	–
COc1cc(-c2nnc3n2NC(c2ccco2)C(C(=O)c2cccs2)S3)cc(OC)c1OC (centres undefined)	> 100	46.2	78.7	64.1	–
COc1cc(C(=O)C2Sc3nnc(-c4cc(OC)c(OC)c(OC)c4)n3NC2c2ccco2)cc(OC)c1OC (centres undefined)	> 100	52.2	48.3	> 100	–
COc1cc(-c2nnc3n2NC(c2ccco2)C(C(=O)c2ccc(C(F)(F)F)cc2)S3)cc(OC)c1OC (centres undefined)	33.6	77.5	37.1	> 100	–
O=c1[nH]cc(F)c(=O)[nH]1 [FLUOROURACIL]	19.4	22.6	22.3	–	–
COc1cc(-c2nnc3n2NC(c2ccco2)C(C(=O)c2ccc(C)cc2)S3)cc(OC)c1OC (centres undefined)	> 100	7.5	> 100	17.4	Ratio IC50 (PC-3 [4]): 3; Ratio IC50 (HepG2 [5]): 2.7
COc1cc(-c2nnc3n2NC(c2ccco2)C(C(=O)c2cccc(Br)c2)S3)cc(OC)c1OC (centres undefined)	91.8	63.9	36.9	> 100	–
COc1cc(-c2nnc3n2NC(c2ccco2)C(C(=O)c2ccccc2F)S3)cc(OC)c1OC (centres undefined)	94.8	> 100	78.7	> 100	–
COc1cc(-c2nnc3n2NC(c2ccco2)C(C(=O)c2ccc(F)cc2)S3)cc(OC)c1OC (centres undefined)	> 100	27.7	53.7	> 100	Ratio IC50 (PC-3 [4]): 0.62
COc1cc(-c2nnc3n2NC(c2ccco2)C(C(=O)c2ccccc2C)S3)cc(OC)c1OC (centres undefined)	69.9	88.4	80	63	–
COc1cc(C(=O)C2Sc3nnc(-c4cc(OC)c(OC)c(OC)c4)n3NC2c2cccs2)cc(OC)c1OC (centres undefined)	71	> 100	> 100	> 100	–
COc1cc(-c2nnc3n2NC(c2ccco2)C(C(=O)c2ccc(Cl)cc2)S3)cc(OC)c1OC (centres undefined)	> 100	67.8	51.4	78.6	–
COc1cc(-c2nnc3n2NC(c2cccs2)C(C(=O)c2ccc(C)cc2)S3)cc(OC)c1OC (centres undefined)	28.4	5.09	12.7	3.7	Ratio IC50 (PC-3 [4]): 3; Activity (PC-3 [6]): 57%; Activity (PC-3 [7]): 29.4%; Activity (PC-3 [8]): 65.1%; Activity (PC-3 [9]): 23.69%; Activity (PC-3 [10]): 33.85%; Activity (PC-3 [11]): 15.52%; Activity (PC-3 [12]): 0.38%; Activity (PC-3 [13]): 0.3%; Activity (PC-3 [14]): 9.79%; Activity (PC-3 [15]): 47.22%; Ratio IC50 (A549 [16]): 2; Activity (PC-3 [17]): 12.53%; Activity (PC-3 [18]): Dose-dependent effect; Ratio IC50 (HepG2 [5]): 11; Activity (PC-3 [19]): 0.92%
COc1ccc(C(=O)C2Sc3nnc(-c4cc(OC)c(OC)c(OC)c4)n3NC2c2cccs2)cc1 (centres undefined)	49.5	95.9	> 100	68	–
